# Laboratory results published in US20140275078A1, “COMPOSITIONS AND METHODS FOR TREATING CANCER USING PI3KB INHIBITOR AND MAPK PATHWAY INHIBITOR, INCLUDING MEK AND RAF INHIBITORS” (SANOFI, priority 2011, published 2014).
# Like-named read-outs stand apart in the source and are kept apart here.
# What was measured:
# [1] = test system: human melanoma cell line WM-266-4; test: Cell proliferation (CelltiterGlo, ray design) in WM-266-4; assay type: cell-based; settings: example 3; single agent; 96 hours; 4-parameter logistic model
# Experimental: UACC-62 cells were plated at 2500 cells/well in 96-well plates in appropriate culture medium and incubated 6 hours at 37° C., 5% CO2. […] Cell growth was evaluated by measuring intracellular ATP using CelltiterGlo® reagent (Promega) according to the manufacturer's protocol. Briefly, Cell Titer Glo was added to each plate, incubated for 1 hour then luminescent signal was read on the MicroBeta Luminescent plate reader. All plates were run in duplicate. All assays were run at least in duplicate.
# Inhibition of cell growth was estimated after treatment with compound or combination of compounds for four days and comparing the signal to cells treated with vehicle (DMSO).
# Growth inhibition percentage (GI %) was calculated according to the following equation: GI %=100*(1−((X−BG)/(TC−BG))
# A global non linear mixed model using NLMIXED procedure of SAS V9.2 was applied to fit simultaneously the concentration-responses curves for each ray. The combination index
# of each ray i and its 95% confidence interval was then estimated using the following equation: […]
# where IC40A and IC40B are the concentrations of compound A and compound B necessary to obtain 40% of inhibition for each compound alone and CA and CB are the concentrations of compound A and compound B in the mixture necessary to obtain 40% of inhibition.
# The human melanoma WM-266-4 cell line was purchased at ATCC (Ref number CRL-1676 Batch 3272826). The WM-266-4 cells were cultured in RPMI1640 medium supplemented with 10% FBS and 2 mM L-Glutamine.
# Materials and Methods are the same described in example 1.
# The human melanoma WM-266-4 cell line was purchased at ATCC (Ref number CRL-1676 Batch 3272826). The WM-266.4 cells were cultured in RPMI1640 medium supplemented with 10% FBS and 2 mM L-Glutamine.
# [2] = test system: human melanoma tumors WM-266.4; settings: Ex. 7, Cpd (I) 150 mg/kg bid, alone or combined
# PI3K gamma = PI3K gamma (Homo sapiens, UniProt P48736); settings: cited from earlier work
# [3] = Chemical stability of dosing stock solution; settings: oral dosing formulation of each compound; in the dark at RT
# [4] = test system: human melanoma tumors UACC-62; test: Antitumor activity against subcutaneous UACC-62 tumors in SCID female mice; settings: Ex. 6, Cpd (I) 151.5 mg/kg bid, alone or combined
# [5] = PO d8-15, Cpd (2b) 100 mg/kg qd
# PI3K gamma, sequence (P48736 whole entry): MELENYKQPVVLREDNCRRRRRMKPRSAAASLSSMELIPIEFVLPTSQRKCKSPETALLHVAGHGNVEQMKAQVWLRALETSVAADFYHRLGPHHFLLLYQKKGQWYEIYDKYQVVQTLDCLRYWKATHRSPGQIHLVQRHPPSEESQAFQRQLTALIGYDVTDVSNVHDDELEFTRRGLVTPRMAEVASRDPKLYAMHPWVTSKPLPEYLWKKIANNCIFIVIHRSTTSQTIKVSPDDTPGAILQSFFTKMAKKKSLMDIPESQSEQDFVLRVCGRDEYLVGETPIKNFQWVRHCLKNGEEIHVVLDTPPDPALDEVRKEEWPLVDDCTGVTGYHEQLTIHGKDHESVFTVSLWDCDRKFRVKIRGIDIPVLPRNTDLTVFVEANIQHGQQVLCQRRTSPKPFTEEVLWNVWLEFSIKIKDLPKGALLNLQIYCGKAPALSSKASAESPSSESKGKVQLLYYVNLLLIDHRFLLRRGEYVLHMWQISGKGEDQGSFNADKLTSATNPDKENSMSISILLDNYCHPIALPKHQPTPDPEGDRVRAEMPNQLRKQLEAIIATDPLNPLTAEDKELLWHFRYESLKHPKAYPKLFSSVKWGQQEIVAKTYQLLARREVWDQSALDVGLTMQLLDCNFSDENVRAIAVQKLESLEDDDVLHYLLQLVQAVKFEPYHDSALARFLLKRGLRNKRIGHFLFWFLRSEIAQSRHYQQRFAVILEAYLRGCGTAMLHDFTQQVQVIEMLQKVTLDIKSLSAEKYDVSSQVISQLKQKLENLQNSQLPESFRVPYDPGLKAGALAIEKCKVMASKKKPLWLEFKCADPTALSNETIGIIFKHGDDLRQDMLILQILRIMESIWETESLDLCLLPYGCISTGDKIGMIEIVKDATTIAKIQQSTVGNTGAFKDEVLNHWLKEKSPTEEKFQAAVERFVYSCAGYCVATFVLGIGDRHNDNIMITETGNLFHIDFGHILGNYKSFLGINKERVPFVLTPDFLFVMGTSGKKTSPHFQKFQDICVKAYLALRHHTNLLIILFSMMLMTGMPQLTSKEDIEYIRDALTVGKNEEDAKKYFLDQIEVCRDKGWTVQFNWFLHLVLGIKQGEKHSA
structure (smiles),measurement,setting,value
"C[C@H]1Cc2ccccc2N1C(=O)Cc1nc(N2CCOCC2)cc(=O)[nH]1 [Compound (I), 2-{2-[(2S)-2-methyl-2,3-dihydro-1H-indol-1-yl]-2-oxoethyl}-6-(morpholin-4-yl)pyrimidin-4(3H)-one]",Absolute IC40,[1],0.834 µM
same,Tumor volume changes from baseline: Median (nMad),"[2]; Cpd (2b) 50 mg/kg qd, Day 24",54 (53.4)
same,Tumor volume changes from baseline: Median (nMad),"[2]; Cpd (2b) 50 mg/kg qd, Day 27",132 (62.3)
same,Tumor volume changes from baseline: Median (nMad),"[2]; Cpd (2b) 50 mg/kg qd, Day 29",162 (47.4)
same,Tumor volume changes from baseline: Median (nMad),"[2]; Cpd (2b) 50 mg/kg qd, Day 31",272 (20.8)
same,Tumor volume changes from baseline: Median (nMad),"[2]; Cpd (2b) 50 mg/kg qd, Global",138 (100.8)
same,Tumor volume changes from baseline: Median (nMad),"[2]; Cpd (2b) 100 mg/kg qd, Day 24",54 (53.4)
same,Tumor volume changes from baseline: Median (nMad),"[2]; Cpd (2b) 100 mg/kg qd, Day 27",132 (62.3)
same,Tumor volume changes from baseline: Median (nMad),"[2]; Cpd (2b) 100 mg/kg qd, Day 29",162 (47.4)
same,Tumor volume changes from baseline: Median (nMad),"[2]; Cpd (2b) 100 mg/kg qd, Day 31",272 (20.8)
same,Tumor volume changes from baseline: Median (nMad),"[2]; Cpd (2b) 100 mg/kg qd, Global",138 (100.8)
same,IC50,PI3K gamma,> 10 µM
same,stock solution chemically stable,[3],7 days
same,Tumor volume changes from baseline: Median (nMad),"[4]; Cpd (2b) 50 mg/kg qd, Day 11",54 (62.3)
same,Tumor volume changes from baseline: Median (nMad),"[4]; Cpd (2b) 50 mg/kg qd, Day 13",145 (71.2)
same,Tumor volume changes from baseline: Median (nMad),"[4]; Cpd (2b) 50 mg/kg qd, Day 15",303 (63.8)
same,Tumor volume changes from baseline: Median (nMad),"[4]; Cpd (2b) 50 mg/kg qd, Global",145 (89)
same,Tumor volume changes from baseline: Median (nMad),"[4]; Cpd (2b) 100 mg/kg qd, Day 11",54 (62.3)
same,Tumor volume changes from baseline: Median (nMad),"[4]; Cpd (2b) 100 mg/kg qd, Day 13",145 (71.2)
same,Tumor volume changes from baseline: Median (nMad),"[4]; Cpd (2b) 100 mg/kg qd, Day 15",303 (63.8)
same,Tumor volume changes from baseline: Median (nMad),"[4]; Cpd (2b) 100 mg/kg qd, Global",145 (89)
same,Average body weight change in % per mouse at nadir,[4]; [5],−2.9%
same,Drug death (Day of death),[4]; [5],0/7
same,day of nadir,[4]; [5],15 days
same,ΔT/ΔC % (day 15),[4]; [5],39%
